Data on one compound can be found in PMC4817054, “Expansion of a bitter taste receptor family in a polyphagous insect herbivore” (Scientific Reports, 2016).

This assay relates to HarmGR195. The note with it: agonist; HarmGR195 expressed alone; SEM, N = 3; HBSS.

What is called EC50 is the concentration that produces a half-maximal response. The low end stands for a more potent agent, the high end for a less potent agent. For the compound `O=C(O)[C@@H]1CCCN1` [proline], a half-maximal response (EC50) required 43 ± 7 mM.
